Laboratory results: EP4810508A1, “ARABINOSE DERIVATIVE COMPOUND, AND COMPOSITION COMPRISING SAME FOR PREVENTING OR TREATING DEGENERATIVE BRAIN DISEASES” (Digmbio. Inc., priority 2023, dated 2025)
Where two headings read alike, the source gives them in different places.

Tests used:
HRE/Luc/HEK293 cells = assay: HRE (Hypoxia Response Element) luciferase assay; format: cell-based, human; conditions: for fold induction at 10 µM / fold induction at 100 µM: Homo sapiens; for HRE assay: increase in HRE expression levels by the test substance relative to the vehicle in HRE/Luc/HEK293 cells; for HRE expression: concentration of 10 µM
How it was run: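 HRE-luciferase HEK293 cells in MEM/10% FBS pretreated with compound 6 h, then held under hypoxia (0.1% O2) 18 h; luminescence read after lysis. Scored as fold increase over vehicle, with twofold threshold at 100, 10 or 1 µM.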

male ICR mice [1] = assay: Scopolamine-induced cognitive impairment model: Y-maze test; format: in vivo; conditions: for percent recovery of cognitive function (Y-maze) at 50 mg/kg: Mus musculus, po, 168 h; for in vivo Y-maze (%): spontaneous alternation, scopolamine 1 mg/kg i.p., compounds 50 mg/kg oral for 7 days, donepezil 5 mg/kg (avg.)
Excerpt: (§1) A memory loss rodent animal model induced by scopolamine intraperitoneal administration is used, and an evaluation method for memory uses a Y-maze test and a passive avoidance test (PAT). Scopolamine is a representative experimental model showing an impairment of cognitive function similar to AD patients by blocking neurotransmitters when administered to an animal as an antagonist of a muscarinic acetylcholine receptor, and as a cognitive function evaluation technique, a Y-maze test and a passive avoidance experiment, which are general and representative methods, were used, and in order to objectify the efficacy levels of the compounds, a group administered with donepezil (Aricept, Eisa) as a positive control material was separately provided to compare the efficacy levels of the compounds.
(§2) In order to evaluate cognitive function, 5-week-old male ICR mice were used, the compounds to be evaluated were prepared at a dose of 50 mg/kg/ml and repeatedly orally administered at a predetermined time for 7 days, and the positive control material was carried out at 5 mg/kg/ml. After the last administration, after 30 minutes of intraperitoneal administration of 1 mg/kg/2 ml of scopolamine, a Y-maze test and a passive avoidance test, which are cognitive function evaluations, were performed.
The Y-maze test is a method for evaluating the ability to sequentially act as an experiment for measuring short-term memory. The measurement equipment is composed of three branches, each branch has a length of 42 cm, a width of 3 cm, and a height of 12 cm, and an angle at which three branches are folded is 120°. Experimental animals are put into each branch for 8 minutes, and the number of times of entering the branches to the tail of the experimental animal and the case of being sequentially received in each branch are scored (actual alternation). The alternation behavior is defined as entering not to overlap all three, and is calculated by the following equation. [formula]

male ICR mice [2] = assay: Scopolamine-induced cognitive impairment model: passive avoidance test (PAT); format: in vivo; conditions: for percent recovery of memory in passive avoidance test (normal group = 100, scopolamine control = 0) at 50 mg/kg: Mus musculus, po, 168 h, read-out: in vivo(effect) PAT (%); for cognitive function recovery compared to normal animals, passive avoidance test (effect %): compounds 50 mg/kg, donepezil 5 mg/kg, orally for 7 days, scopolamine 1 mg/kg intraperitoneal; for in vivo PAT: time staying in bright room (step-through latency), scopolamine 1 mg/kg i.p., compounds 50 mg/kg oral for 7 days, donepezil 5 mg/kg (avg.)
Excerpt: as §1, §2
In addition, the passive avoidance test was conducted using an avoidance learning box (Jeondo B&P, Korea, Seoul), and the avoidance learning box is divided into a dark room and a bright room, and when a laboratory animal is put into a bright room, the subject goes beyond the dark room. At the moment, an electric shock of 0.5 mA is applied for 5 seconds, and when the next day experimental animal is put back into a bright room, an electric shock in a dark room is memorized and stay in a bright room. In this case, a step-through latency is measured to evaluate memory. The efficacy of the compounds of the present invention against the normal group and the control group in the Y-maze test and the passive avoidance test was described in the following Table 3 (Scopolamine-induced cognitive impairment model result).

[3] = HEK293, fold increase of HRE expression, hypoxic conditions (O2 0.1%) 18 hours, Table 2, read-out: HRE-increasing 10uM
[4] = HEK293, fold increase of HRE expression, hypoxic conditions (O2 0.1%) 18 hours, Table 2, read-out: HRE-increasing 100uM
[5] = read-out: cognitive function recovery compared to normal animals, Y-maze experiment (effect %)
[6] = read-out: in vivo(effect) Y-maze (%)

| SMILES | fold induction at 10 µM (HRE/Luc/HEK293 cells; [3]) | fold induction at 100 µM (HRE/Luc/HEK293 cells; [4]) | HRE assay (HRE/Luc/HEK293 cells) | percent recovery of cognitive function (Y-maze) at 50 mg/kg (male ICR mice [1]; [5]) [%] | percent recovery of cognitive function (Y-maze) at 50 mg/kg (male ICR mice [1]; [6]) [%] | in vivo Y-maze (%) (male ICR mice [1]) | percent recovery of memory in passive avoidance test (normal group = 100, scopolamine control = 0) at 50 mg/kg (male ICR mice [2]) [%] | cognitive function recovery compared to normal animals, passive avoidance test (effect %) (male ICR mice [2]) [%] | in vivo PAT (male ICR mice [2]) [s] | HRE expression (HRE/Luc/HEK293 cells) | fold induction at 10 µM (HRE/Luc/HEK293 cells; HEK293, 18 h, Table 2 (Examples 37-74, 52), read-out: HKt-increasing 10uM) | fold induction at 100 µM (HRE/Luc/HEK293 cells; HEK293, 18 h, Table 2 (Examples 37-74, 52), read-out: HKt-increasing 100uM) |
| --- | --- | --- | --- | --- | --- | --- | --- | --- | --- | --- | --- | --- |
| COc1ccc(Cc2ccc(O[C@H]3OC[C@H](O)[C@H](O)[C@H]3O)cc2)cc1 [Example 3, (2R,3R,4S,5S)-2-(4-(4-methoxybenzyl)phenoxy)tetrahydro-2H-pyran-3,4,5-triol] | 1.5 | 3.1 | •• | 59 | 59 | 61 | 91 | 91 | 206 |  |  |  |
| COc1ccc(Cc2ccc(O[C@H]3O[C@@H](C)[C@@H](O)[C@@H](O)[C@@H]3O)cc2)cc1 [Example 6, (2R,3S,4R,5S,6S)-2-(4-(4-methoxybenzyl)phenoxy)-6-methyltetrahydro-2H-pyran-3,4,5-triol] | < 1 | 1.5 | • |  | -6 | 53 | 10 |  | 109 |  |  |  |
| Cc1ccc(Cc2ccc(O[C@H]3OC[C@H](O)[C@H](O)[C@H]3O)cc2)cc1 [Example 2, (2R,3R,4S,5S)-2-(4-(4-methylbenzyl)phenoxy) tetrahydro-2H-pyran-3,4,5-triol] | 2.5 | 3.2 | ••• | ≥ 50 | 51 | 63 | 25 |  | 134 |  |  |  |
| CC(C)c1ccc(Cc2ccc(S[C@H]3OC[C@H](O)[C@H](O)C3O)cc2)cc1 (stereo partly drawn) [Example 27, (2R,4S,5S)-2-((4-(4-isopropylbenzyl)phenyl)thio) tetrahydro-2H-pyran-3,4,5-triol] | 3.7 | < 1 |  |  | 44 | 62 | 28 |  | 80 | more than threefold |  |  |
| O[C@@H]1[C@@H](O)[C@@H](Oc2ccc(Cc3ccc(Oc4ccccc4)cc3)cc2)OC[C@@H]1O [Example 9, (2R,3R,4S,5S)-2-(4-(4-phenoxybenzyl)phenoxy) tetrahydro-2H-pyran-3,4,5-triol] | 1.2 | < 1 | • |  | 9 | 57 | 32 |  | 127 |  |  |  |
| Cc1ccc(Oc2ccc(O[C@H]3OC[C@H](O)[C@H](O)[C@H]3O)cc2)cc1 [Example 33, (2R,3R,4S,5S)-2-(4-(para-tolyloxy)phenoxy) tetrahydro-2H-pyran-3,4,5-triol] | 3.8 | 2.5 |  |  | 30 | 56 | 10 |  | 58 | more than threefold |  |  |
| CC(C)c1ccc(Cc2ccc(O[C@H]3OC[C@H](O)[C@H](O)[C@H]3O)c(Cl)c2)cc1 [Example 8, (2R,3R,4S,5S)-2-(2-chloro-4-(4-isopropylbenzyl)phenoxy)tetrahydro-2H-pyran-3,4,5-triol] | 4.2 |  | ••• |  | 43 | 58 | 11 |  | 58 | more than threefold |  |  |
| CC(C)c1ccc(Cc2ccc(O[C@H]3OC[C@H](O)[C@H](O)[C@H]3O)cc2)cc1 [Example 7, (2R,3R,4S,5S)-2-(4-(4-isopropylbenzyl)phenoxy)tetrahydro-2H-pyran-3,4,5-triol] | 3.5 | < 1 | ••• | ≥ 50 | 57 | 65 | 73 | ≥ 50 | 179 | more than threefold |  |  |
| O[C@@H]1[C@@H](O)[C@@H](Oc2ccc(CC3CCCCC3)cc2)OC[C@@H]1O [Example 22, (2R,3R,4S,5S)-2-(4-(cyclohexylmethyl)phenoxy)tetrahydro-2H-pyran-3,4,5-triol] | 2.5 | 2.8 |  | ≥ 50 | 56 | 65 | 36 |  | 145 |  |  |  |
| CC(C)c1ccc(Oc2ccc(O[C@H]3OC[C@@H](O)[C@H](O)[C@H]3O)cc2)cc1 [Example 56, (2R,3R,4S,5R)-2-(4-(4-isopropylphenoxy)phenoxy)tetrahydro-2H-pyran-3,4,5-triol] |  |  |  | ≥ 50 | 64 | 61.8 | 81 | ≥ 50 | 217.3 |  | 2.7 | 1.4 |
| CC(C)(C)c1ccc(Oc2ccc(O[C@H]3OC[C@H](O)[C@H](O)[C@H]3O)cc2)cc1 [Example 36] | 3.5 | < 1 |  |  | 42 | 59 | 17 |  | 76 | more than threefold |  |  |
